Results reported in PubChem BioAssay (NCI).
Values joined by “and” are separate entries in the source; they are usually repeats but may differ in a detail not shown here. Equal values may be shown once.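 Cells were grown in 96-well plates and exposed to each compound for 48 hours at five concentrations; endpoints were interpolated linearly between bracketing concentrations, or set to the highest concentration if not reached. GI50: concentration for 50% inhibition of growth. TGI is the concentration that stops growth completely.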

Assays:
Experiment in all cases: NCI-60 cell line screen, 48 h
[1] = system: HCC-2998 colon
[2] = system: UACC-257 melanoma
[3] = system: SN12C renal
[4] = system: SNB-75 CNS
[5] = system: OVCAR-8 ovarian
[6] = system: NCI-H460 lung
[7] = system: OVCAR-5 ovarian
[8] = system: HOP-62 NSCLC
[9] = system: NCI-H226 lung
[10] = system: PC-3 prostate

| Structure (SMILES) | GI50 [1] [µM] | TGI [1] | GI50 [2] [µM] | TGI [2] | GI50 [3] [µM] | TGI [3] | GI50 [4] [µM] | TGI [4] | GI50 [5] | TGI [5] | GI50 [6] [µM] | TGI [6] [µM] | GI50 [7] [µM] | TGI [7] | GI50 [8] [µM] | TGI [8] | GI50 [9] [µM] | TGI [9] | GI50 [10] [µM] | TGI [10] [µM] |
| --- | --- | --- | --- | --- | --- | --- | --- | --- | --- | --- | --- | --- | --- | --- | --- | --- | --- | --- | --- | --- |
| O=C1C(Cl)=C(Nc2ccc3c(c2NC2=C(Cl)C(=O)c4ccccc4C2=O)C(=O)c2ccccc2C3=O)C(=O)c2ccccc21 | 3.26 | 10.7 µM | 1.88 | 3.95 µM | 1.73 | 4.46 µM | 4.35 | 13.9 µM | 2.72 µM | 9.6 µM | 1.86 | 5.85 | 2.06 | 4.4 µM | 2.25 | 5.68 µM | 2.7 | 8.9 µM | 1.92 | 12.5 |
| COc1ccc(-c2cc3nccn3c(Nc3ncccc3C(N)=O)n2)cc1OC | > 100 | > 100 µM | > 100 | > 100 µM | 1.05 | > 100 µM | 1.04 | > 100 µM | 0.955 µM | > 100 µM | 2.19 | > 100 | > 100 | > 100 µM | 3.18 | > 100 µM | > 100 | > 100 µM | > 100 | > 100 |
| C=C(C)C(=O)N1c2ccc(OC)cc2CC1C(=O)OCC (centres undefined) |  | > 100 µM |  | > 100 µM |  | > 100 µM |  | > 100 µM |  | > 100 µM |  | > 100 |  | > 100 µM |  | > 100 µM |  | > 100 µM |  | > 100 |
| O=C1c2c(O)cccc2C(C(=O)CCCC(=O)C2c3cccc(O)c3C(=O)c3c(O)cccc32)c2cccc(O)c21 |  | 3.4 µM |  | 0.893 µM |  | 12.2 µM |  | 2.82 µM |  | 2.77 µM |  | 0.661 |  | 1.18 µM |  | 2.09 µM |  | 1.47 µM |  | 0.467 |
| Cc1ccc2oc(=O)cc(C3c4ccc([nH]4)C(c4cc(=O)oc5ccc(C)cc45)c4ccc([nH]4)C(c4cc(=O)oc5ccc(C)cc45)c4ccc([nH]4)C(c4cc(=O)oc5ccc(C)cc45)c4ccc3[nH]4)c2c1 (centres undefined) | 0.188 | 0.846 µM | 0.183 | 2.46 µM | 0.0586 | 1.74 µM | 0.0256 | 1.61 µM | 0.0338 µM | 1.52 µM | 0.0375 | 0.656 | 0.106 | 2.71 µM | 0.0463 | 1.27 µM | 0.0865 | 2.78 µM | 0.0366 | 1.94 |
| O=C(Nc1ccc([N+](=O)[O-])cc1)c1cc2ccccc2cc1O | 1.25 | 4.8 µM | 0.313 | 1.48 µM | 0.348 | 5.92 µM | 0.538 | 4.07 µM | 0.425 µM | 12.6 µM | 0.365 | 6.31 | 1.73 | 48.2 µM | 0.939 | 8.69 µM | 0.503 | 5.37 µM | 0.937 | 7.88 |
| Cc1cc(S(=O)(=O)Nc2nc3ccsc3c(=O)n2Cc2ccccc2)c(S)cc1Cl | 24 | 43.7 µM | 47.8 | > 100 µM | 31.1 | 58.8 µM | > 100 | > 100 µM | 44.5 µM | > 100 µM | 23.6 | 71 | 32.9 | 97.5 µM | 22.7 | 46.6 µM | 34.5 | 93.6 µM | 40.4 | > 100 |
| CCCCc1oc2ccccc2c1C(=O)c1cc(I)c(OCCN(CC)CC)c(I)c1 | 1.69 | 3.23 µM and 7.89 µM | 2.32 | 6.42 µM and 9.04 µM | 3.08 | 14.8 µM and 27.9 µM | 1.92 | 10.9 µM and 22.9 µM | 3.37 µM and 11 µM | 13.2 µM and 92.5 µM |  | 3.87 | 2.46 | 7.27 µM and 10.9 µM | 2.36 | 6.25 µM and 30.7 µM | 2.84 | 12.7 µM and 8.55 µM | 1.95 | 8.91 |
| NCCCn1c2c(c3ccc([N+](=O)[O-])cc3c1=O)C(=O)c1cc(Cl)ccc1-2 | < 0.0138 | 0.119 µM | 0.0526 | 1.31 µM | < 0.01 | 0.146 µM | < 0.01 | 1.2 µM | < 0.01 µM | 0.109 µM | < 0.01 | 0.128 | 0.0265 | 0.193 µM | < 0.01 | 0.123 µM | < 0.01 | 0.141 µM | < 0.0163 | 0.381 |
